Bridge positions count the residues as written; N and C are the ends. Square brackets hold non-standard residues; d marks the D form. Peptide text beside a SMILES is read from it. * marks the point of attachment. Phe(3-COOH) = N[C@@H](Cc1cccc(C(=O)O)c1)C(=O)O; Phe(4-CONH2) = NC(=O)c1ccc(C[C@H](N)C(=O)O)cc1; Phe(4-COOH) = N[C@@H](Cc1ccc(C(=O)O)cc1)C(=O)O; Phe(4-CH2NH2) = NCc1ccc(C[C@H](N)C(=O)O)cc1; Bip = N[C@@H](Cc1ccc(-c2ccccc2)cc1)C(=O)O; Phe(4-CN) = N#Cc1ccc(C[C@H](N)C(=O)O)cc1; Phe(4-NH2) = Nc1ccc(C[C@H](N)C(=O)O)cc1; Phe(3-Me) = Cc1cccc(C[C@H](N)C(=O)O)c1; Phe(4-F) = N[C@@H](Cc1ccc(F)cc1)C(=O)O; Phe(2-Me) = Cc1ccccc1C[C@H](N)C(=O)O; Cha = N[C@@H](CC1CCCCC1)C(=O)O; Carboxymethyl = O=C(O)C*; Orn = NCCC[C@H](N)C(=O)O; Aun = NCCCCCCCCCCC(=O)O; Dab = NCC[C@H](N)C(=O)O; Dap = NC[C@H](N)C(=O)O; AEEA = NCCOCCOCC(=O)O
Target: T1, PD-1/PD-L1 interaction (PE-labeled human PD-L1-Ig binding to Jurkat cell line over-expressing human PD-1) (Homo sapiens, UniProt Q15116)
T1 construct: expressed in transfected cells; host or cells: Jurkat
T1 sequence (Q15116 25-288): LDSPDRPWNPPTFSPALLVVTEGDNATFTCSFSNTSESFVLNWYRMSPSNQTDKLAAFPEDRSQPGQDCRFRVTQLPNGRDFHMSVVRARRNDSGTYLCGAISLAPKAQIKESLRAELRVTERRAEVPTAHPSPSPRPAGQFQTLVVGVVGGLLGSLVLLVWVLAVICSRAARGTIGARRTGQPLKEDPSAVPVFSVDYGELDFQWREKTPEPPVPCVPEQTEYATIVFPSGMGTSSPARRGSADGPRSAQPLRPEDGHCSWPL
Experiment: Jurkat-PD-1 Cell Binding High-Content Screening Assay (CBA)
Type: cell-based
Details: Jurkat cell line over-expressing human PD-1; PE-labeled PD-L1-Ig 20 nM final; read-out: Jurkat hPD1-PDL1 IC50
Method in brief: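 Jurkat-hPD-1 cells, DMEM/10% FCS; cpd 2 h 37° C; PE-PD-L1-Ig 20 nM final, 1 h; 4% PFA fix + Hoechst 33342, 3× dPBS wash; high-content imaging read-out.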

Structure (SMILES): Cc1cccc(C[C@@H]2NC(=O)[C@H](CC(=O)O)NC(=O)[C@H](Cc3ccc(OCC(=O)O)cc3)NC(=O)[C@H](CN)NC(=O)CSC[C@@H](C(=O)N[C@@H](CCN)C(=O)NCCOCCOCC(=O)NCCCCCCCCCCC(=O)O)NC(=O)[C@H](CCCN)NC(=O)[C@H](C(C)C)NC(=O)[C@H](CC3CCCCC3)NC(=O)[C@H](CCN)NC(=O)[C@@H](CC(C)C)NC(=O)[C@H](CCCN)NC(=O)[C@H](Cc3ccc(O)cc3)NC(=O)[C@H](Cc3ccc(-c4ccccc4)cc3)NC(=O)[C@H](Cc3ccc(OCC(=O)O)cc3)NC2=O)c1 [Compound 2059] ({CH2CO}-[Dap]Y(Carboxymethyl)D[Phe(3-Me)]Y(Carboxymethyl)[Bip]Y[Orn][dL][Dab][Cha]V[Orn]C[Dab][AEEA][Aun]-OH; thioether N-14)
- IC50: 4 nM

Structure (SMILES): Cc1cccc(C[C@@H]2NC(=O)[C@H](CC(=O)O)NC(=O)[C@H](Cc3ccc(OCC(=O)O)cc3)NC(=O)[C@H](CN)NC(=O)CSC[C@@H](C(=O)N[C@@H](CCN)C(=O)NCCOCCOCC(=O)NCCCCCCCCCCC(=O)O)NC(=O)[C@H](CCCN)NC(=O)[C@H](C(C)C)NC(=O)[C@H](CC3CCCCC3)NC(=O)[C@H](CCN)NC(=O)[C@@H](CC(C)C)NC(=O)[C@H](CCCN)NC(=O)[C@H](Cc3ccc(O)cc3)NC(=O)[C@H](Cc3ccc(-c4ccccc4)cc3)NC(=O)[C@H](Cc3ccc(C(=O)O)cc3)NC2=O)c1 [Compound 2060] ({CH2CO}-[Dap]Y(Carboxymethyl)D[Phe(3-Me)][Phe(4-COOH)][Bip]Y[Orn][dL][Dab][Cha]V[Orn]C[Dab][AEEA][Aun]-OH; thioether N-14)
- IC50: 4.3 nM

Structure (SMILES): Cc1cccc(C[C@@H]2NC(=O)[C@H](CC(=O)O)NC(=O)[C@H](Cc3ccc(OCC(=O)O)cc3)NC(=O)[C@H](CN)NC(=O)CSC[C@@H](C(=O)N[C@@H](CCN)C(=O)NCCOCCOCC(=O)NCCCCCCCCCCC(=O)O)NC(=O)[C@H](CCCN)NC(=O)[C@H](C(C)C)NC(=O)[C@H](CC3CCCCC3)NC(=O)[C@H](CCN)NC(=O)[C@@H](CC(C)C)NC(=O)[C@H](CCCN)NC(=O)[C@H](Cc3ccc(OCC(=O)O)cc3)NC(=O)[C@H](Cc3ccc(-c4ccccc4)cc3)NC(=O)[C@H](C(C)C)NC2=O)c1 [Compound 2061] ({CH2CO}-[Dap]Y(Carboxymethyl)D[Phe(3-Me)]V[Bip]Y(Carboxymethyl)[Orn][dL][Dab][Cha]V[Orn]C[Dab][AEEA][Aun]-OH; thioether N-14)
- IC50: 3.9 nM

Structure (SMILES): Cc1cccc(C[C@@H]2NC(=O)[C@H](CC(=O)O)NC(=O)[C@H](Cc3ccc(OCC(=O)O)cc3)NC(=O)[C@H](CN)NC(=O)CSC[C@@H](C(=O)N[C@@H](CCN)C(=O)NCCOCCOCC(=O)NCCCCCCCCCCC(=O)O)NC(=O)[C@H](CCCN)NC(=O)[C@H](C(C)C)NC(=O)[C@H](CC3CCCCC3)NC(=O)[C@H](CCN)NC(=O)[C@@H](CC(C)C)NC(=O)[C@H](CCCN)NC(=O)[C@H](Cc3ccc(C(=O)O)cc3)NC(=O)[C@H](Cc3ccc(-c4ccccc4)cc3)NC(=O)[C@H](C(C)C)NC2=O)c1 [Compound 2062] ({CH2CO}-[Dap]Y(Carboxymethyl)D[Phe(3-Me)]V[Bip][Phe(4-COOH)][Orn][dL][Dab][Cha]V[Orn]C[Dab][AEEA][Aun]-OH; thioether N-14)
- IC50: 7 nM

Structure (SMILES): Cc1cccc(C[C@@H]2NC(=O)[C@H](CC(=O)O)NC(=O)[C@H](Cc3ccc(OCC(=O)O)cc3)NC(=O)[C@H](CN)NC(=O)CSC[C@@H](C(=O)N[C@@H](CCN)C(=O)NCCOCCOCC(=O)NCCCCCCCCCCC(=O)O)NC(=O)[C@H](CCCN)NC(=O)[C@H](C(C)C)NC(=O)[C@H](CC3CCCCC3)NC(=O)[C@H](CCN)NC(=O)[C@@H](CC(C)C)NC(=O)[C@H](CCCN)NC(=O)[C@H](Cc3ccc(O)cc3)NC(=O)[C@H](Cc3ccc(-c4ccccc4)cc3)NC(=O)[C@H](Cc3ccccc3)NC2=O)c1 [Compound 2063] ({CH2CO}-[Dap]Y(Carboxymethyl)D[Phe(3-Me)]F[Bip]Y[Orn][dL][Dab][Cha]V[Orn]C[Dab][AEEA][Aun]-OH; thioether N-14)
- IC50: 4.9 nM

Structure (SMILES): Cc1cccc(C[C@@H]2NC(=O)[C@H](CC(=O)O)NC(=O)[C@H](Cc3ccc(OCC(=O)O)cc3)NC(=O)[C@H](CN)NC(=O)CSC[C@@H](C(=O)N[C@@H](CCN)C(=O)NCCOCCOCC(=O)NCCCCCCCCCCC(=O)O)NC(=O)[C@H](CCCN)NC(=O)[C@H](C(C)C)NC(=O)[C@H](CC3CCCCC3)NC(=O)[C@H](CCN)NC(=O)[C@@H](CC(C)C)NC(=O)[C@H](CCCN)NC(=O)[C@H](Cc3ccc(O)cc3)NC(=O)[C@H](Cc3ccc(-c4ccccc4)cc3)NC(=O)[C@H](Cc3cccc(C(=O)O)c3)NC2=O)c1 [Compound 2064] ({CH2CO}-[Dap]Y(Carboxymethyl)D[Phe(3-Me)][Phe(3-COOH)][Bip]Y[Orn][dL][Dab][Cha]V[Orn]C[Dab][AEEA][Aun]-OH; thioether N-14)
- IC50: 15.4 nM

Structure (SMILES): Cc1cccc(C[C@@H]2NC(=O)[C@H](CC(=O)O)NC(=O)[C@H](Cc3ccc(OCC(=O)O)cc3)NC(=O)[C@H](CN)NC(=O)CSC[C@@H](C(=O)N[C@@H](CCN)C(=O)NCCOCCOCC(=O)NCCCCCCCCCCC(=O)O)NC(=O)[C@H](CCCN)NC(=O)[C@H](C(C)C)NC(=O)[C@H](CC3CCCCC3)NC(=O)[C@H](CCN)NC(=O)[C@@H](CC(C)C)NC(=O)[C@H](CCCN)NC(=O)[C@H](Cc3ccc(O)cc3)NC(=O)[C@H](Cc3ccc(-c4ccccc4)cc3)NC(=O)[C@H](Cc3ccc(N)cc3)NC2=O)c1 [Compound 2065] ({CH2CO}-[Dap]Y(Carboxymethyl)D[Phe(3-Me)][Phe(4-NH2)][Bip]Y[Orn][dL][Dab][Cha]V[Orn]C[Dab][AEEA][Aun]-OH; thioether N-14)
- IC50: 4.8 nM

Structure (SMILES): Cc1cccc(C[C@@H]2NC(=O)[C@H](CC(=O)O)NC(=O)[C@H](Cc3ccc(OCC(=O)O)cc3)NC(=O)[C@H](CN)NC(=O)CSC[C@@H](C(=O)N[C@@H](CCN)C(=O)NCCOCCOCC(=O)NCCCCCCCCCCC(=O)O)NC(=O)[C@H](CCCN)NC(=O)[C@H](C(C)C)NC(=O)[C@H](CC3CCCCC3)NC(=O)[C@H](CCN)NC(=O)[C@@H](CC(C)C)NC(=O)[C@H](CCCN)NC(=O)[C@H](Cc3ccc(O)cc3)NC(=O)[C@H](Cc3ccc(-c4ccccc4)cc3)NC(=O)[C@H](Cc3ccc(C(N)=O)cc3)NC2=O)c1 [Compound 2066] ({CH2CO}-[Dap]Y(Carboxymethyl)D[Phe(3-Me)][Phe(4-CONH2)][Bip]Y[Orn][dL][Dab][Cha]V[Orn]C[Dab][AEEA][Aun]-OH; thioether N-14)
- IC50: 6 nM

Structure (SMILES): Cc1cccc(C[C@@H]2NC(=O)[C@H](CC(=O)O)NC(=O)[C@H](Cc3ccc(OCC(=O)O)cc3)NC(=O)[C@H](CN)NC(=O)CSC[C@@H](C(=O)N[C@@H](CCN)C(=O)NCCOCCOCC(=O)NCCCCCCCCCCC(=O)O)NC(=O)[C@H](CCCN)NC(=O)[C@H](C(C)C)NC(=O)[C@H](CC3CCCCC3)NC(=O)[C@H](CCN)NC(=O)[C@@H](CC(C)C)NC(=O)[C@H](CCCN)NC(=O)[C@H](Cc3ccc(O)cc3)NC(=O)[C@H](Cc3ccc(-c4ccccc4)cc3)NC(=O)[C@H](Cc3ccc(CN)cc3)NC2=O)c1 [Compound 2067] ({CH2CO}-[Dap]Y(Carboxymethyl)D[Phe(3-Me)][Phe(4-CH2NH2)][Bip]Y[Orn][dL][Dab][Cha]V[Orn]C[Dab][AEEA][Aun]-OH; thioether N-14)
- IC50: 53.2 nM

Structure (SMILES): Cc1cccc(C[C@@H]2NC(=O)[C@H](CC(=O)O)NC(=O)[C@H](Cc3ccc(OCC(=O)O)cc3)NC(=O)[C@H](CN)NC(=O)CSC[C@@H](C(=O)N[C@@H](CCN)C(=O)NCCOCCOCC(=O)NCCCCCCCCCCC(=O)O)NC(=O)[C@H](CCCN)NC(=O)[C@H](C(C)C)NC(=O)[C@H](CC3CCCCC3)NC(=O)[C@H](CCN)NC(=O)[C@@H](CC(C)C)NC(=O)[C@H](CCCN)NC(=O)[C@H](Cc3ccc(O)cc3)NC(=O)[C@H](Cc3ccc(-c4ccccc4)cc3)NC(=O)[C@H](Cc3ccccc3C)NC2=O)c1 [Compound 2069] ({CH2CO}-[Dap]Y(Carboxymethyl)D[Phe(3-Me)][Phe(2-Me)][Bip]Y[Orn][dL][Dab][Cha]V[Orn]C[Dab][AEEA][Aun]-OH; thioether N-14)
- IC50: 14.9 nM

Structure (SMILES): Cc1cccc(C[C@@H]2NC(=O)[C@H](CC(=O)O)NC(=O)[C@H](Cc3ccc(OCC(=O)O)cc3)NC(=O)[C@H](CN)NC(=O)CSC[C@@H](C(=O)N[C@@H](CCN)C(=O)NCCOCCOCC(=O)NCCCCCCCCCCC(=O)O)NC(=O)[C@H](CCCN)NC(=O)[C@H](C(C)C)NC(=O)[C@H](CC3CCCCC3)NC(=O)[C@H](CCN)NC(=O)[C@@H](CC(C)C)NC(=O)[C@H](CCCN)NC(=O)[C@H](Cc3ccc(O)cc3)NC(=O)[C@H](Cc3ccc(-c4ccccc4)cc3)NC(=O)[C@H](Cc3ccc(F)cc3)NC2=O)c1 [Compound 2070] ({CH2CO}-[Dap]Y(Carboxymethyl)D[Phe(3-Me)][Phe(4-F)][Bip]Y[Orn][dL][Dab][Cha]V[Orn]C[Dab][AEEA][Aun]-OH; thioether N-14)
- IC50: 11.6 nM

Structure (SMILES): Cc1cccc(C[C@@H]2NC(=O)[C@H](CC(=O)O)NC(=O)[C@H](Cc3ccc(OCC(=O)O)cc3)NC(=O)[C@H](CN)NC(=O)CSC[C@@H](C(=O)N[C@@H](CCN)C(=O)NCCOCCOCC(=O)NCCCCCCCCCCC(=O)O)NC(=O)[C@H](CCCN)NC(=O)[C@H](C(C)C)NC(=O)[C@H](CC3CCCCC3)NC(=O)[C@H](CCN)NC(=O)[C@@H](CC(C)C)NC(=O)[C@H](CCCN)NC(=O)[C@H](Cc3ccc(O)cc3)NC(=O)[C@H](Cc3ccc(-c4ccccc4)cc3)NC(=O)[C@H](Cc3ccc(C#N)cc3)NC2=O)c1 [Compound 2071] ({CH2CO}-[Dap]Y(Carboxymethyl)D[Phe(3-Me)][Phe(4-CN)][Bip]Y[Orn][dL][Dab][Cha]V[Orn]C[Dab][AEEA][Aun]-OH; thioether N-14)
- IC50: 4.8 nM
